The assay has as its target T1, PatA (Mycolicibacterium smegmatis, UniProt A0QWG5).
T1 sequence (A0QWG5 1-304): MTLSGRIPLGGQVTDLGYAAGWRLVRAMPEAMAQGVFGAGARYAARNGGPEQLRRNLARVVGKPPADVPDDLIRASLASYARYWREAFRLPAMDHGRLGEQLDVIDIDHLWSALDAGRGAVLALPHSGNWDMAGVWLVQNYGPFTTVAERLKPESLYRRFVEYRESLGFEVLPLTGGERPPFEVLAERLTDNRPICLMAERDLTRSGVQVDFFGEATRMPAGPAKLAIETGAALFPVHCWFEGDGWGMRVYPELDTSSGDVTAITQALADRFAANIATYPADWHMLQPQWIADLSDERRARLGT
The experiment in a line: isothermal titration calorimetry. In kind it is binding.

Structures are written as SMILES.

Data on one compound can be found in paper PMC8519569 (Science Advances, 2021).

As a reminder, the Kd is the equilibrium constant for the complex coming apart. In turn, `CCCCCCCCCCCCCCCCSCCNC(=O)CCNC(=O)[C@H](O)C(C)(C)COP(=O)(O)OP(=O)(O)OC[C@H]1O[C@@H](n2cnc3c(N)ncnc32)[C@H](O)[C@@H]1OP(=O)(O)O` [S-C16-CoA, S-hexadecyl-CoA] yielded a Kd of 7.18 µM.
